{
  "source": "paper PMC11882969",
  "about": "(Nature Communications, 2025)",
  "key": {"CB1 (rCB1)": {"target": "CB1 (rCB1) (Rattus norvegicus, UniProt P20272)", "sequence (P20272 whole entry)": "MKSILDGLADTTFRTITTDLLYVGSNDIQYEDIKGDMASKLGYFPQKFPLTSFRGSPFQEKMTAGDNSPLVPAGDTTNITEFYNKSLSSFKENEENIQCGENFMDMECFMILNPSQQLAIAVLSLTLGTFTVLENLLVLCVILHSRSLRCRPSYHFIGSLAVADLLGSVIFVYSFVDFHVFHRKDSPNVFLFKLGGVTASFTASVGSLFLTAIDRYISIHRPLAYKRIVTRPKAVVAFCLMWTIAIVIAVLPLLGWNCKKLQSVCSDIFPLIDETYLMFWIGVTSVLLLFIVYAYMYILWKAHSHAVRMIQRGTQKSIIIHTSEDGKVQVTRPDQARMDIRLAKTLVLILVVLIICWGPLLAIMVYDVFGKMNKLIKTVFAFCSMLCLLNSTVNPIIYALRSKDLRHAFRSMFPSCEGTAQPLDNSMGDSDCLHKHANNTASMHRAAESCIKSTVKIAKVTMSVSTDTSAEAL", "assay": "Radioligand competition binding, [3H]-CP-55,940, rat brain membranes", "conditions": "for radioligand binding, competition curve point (normalized): log[drug], replicate columns"}, "hCB1": {"target": "hCB1 (Homo sapiens, UniProt P21554)", "sequence (P21554 whole entry)": "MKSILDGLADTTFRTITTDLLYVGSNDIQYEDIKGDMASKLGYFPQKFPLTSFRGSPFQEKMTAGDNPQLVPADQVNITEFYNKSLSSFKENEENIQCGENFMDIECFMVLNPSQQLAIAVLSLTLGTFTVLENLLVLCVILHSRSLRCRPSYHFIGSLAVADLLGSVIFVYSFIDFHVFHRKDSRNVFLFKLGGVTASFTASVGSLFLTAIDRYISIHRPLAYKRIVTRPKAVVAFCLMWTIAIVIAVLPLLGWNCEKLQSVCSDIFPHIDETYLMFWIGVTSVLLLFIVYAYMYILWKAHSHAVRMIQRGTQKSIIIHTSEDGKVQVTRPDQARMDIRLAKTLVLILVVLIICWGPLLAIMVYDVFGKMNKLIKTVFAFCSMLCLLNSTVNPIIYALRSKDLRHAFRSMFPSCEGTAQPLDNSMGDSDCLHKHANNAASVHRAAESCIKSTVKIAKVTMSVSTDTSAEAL", "assay": "Lance Ultra cAMP accumulation assay, CHO cells;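 also: human CB1R stably expressed in CHO cells, ligands co-incubated with forskolin at room temperature, read-out is lowering of forskolin-stimulated cAMP accumulation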", "format": "cell-based", "set-up": "expressed in transfected cells", "conditions": "for normalised cAMP response, concentration-response (Figure2f), replicate values: log[Compound", "procedure": "The inhibition of forskolin-stimulated cAMP accumulation assays was carried out using PerkinElmer’s Lance Ultra cAMP kit following the manufacturer’s protocol. In brief, CHO cells stably expressing human CB1R (provided by the lab of Laura Bohn) were harvested by incubation with Versene (ThermoFisher Scientific, Waltham, MA) for 10 min, washed once with Hank’s Balanced Salt Solution, and resuspended in stimulation buffer at ~200 cells/μL density. The ligands at eight different concentrations (0.001-10,000 nM) in stimulation buffer (5 μL) containing forskolin (2 μM final concentration) were added to a 384-well plate followed by the cell suspension (5 μL; ~1000 cells/well). The plate was incubated for 30 min at room temperature. Eu-cAMP tracer (5 μL) and Ulight-anti-cAMP (5 μL) working solutions were then added to each well, and the plate was incubated at room temperature for an additional 60 min. Results were measured on a Perkin-Elmer EnVision plate reader. The EC50 values were determined by nonlinear regression analysis using Graphpad Prism 9 and are expressed as the mean of three experiments, each performed in triplicate."}},
  "note": "“And” between values parts separate entries of the source, which are not always exact repeats. Equal values may be shown once. Read-outs that look alike come from different tables or passages of the source.",
  "data": [
    {"smiles": "Cc1cc(C(=O)NC(C)(c2ccco2)c2ccco2)nn1-c1cccc(C(F)(F)F)c1", "note": "[‘4936]", "values": [
      {"measurement": "Ki", "setting": "CB1 (rCB1)", "result": 7, "unit": "nM"},
      {"measurement": "LLE (lipophilic ligand efficiency)", "setting": "CB1 (rCB1); LLE = pIC50 − clogP", "result": 3.2},
      {"measurement": "LE (ligand efficiency)", "setting": "CB1 (rCB1); from rCB1 affinity", "result": 0.37},
      {"measurement": "pKi [95% CI]", "setting": "CB1 (rCB1); rCB1", "result": "8.1 [7.9 – 8.4]"},
      {"measurement": "radioligand binding, competition curve point (normalized)", "setting": "CB1 (rCB1); rCB1, M = -5.643", "result": "23.3333 and 16.4729"},
      {"measurement": "radioligand binding, competition curve point (normalized)", "setting": "CB1 (rCB1); rCB1, M = -6.357", "result": "15.1515 and 4.845"},
      {"measurement": "radioligand binding, competition curve point (normalized)", "setting": "CB1 (rCB1); rCB1, M = -7.07", "result": "14.5455 and 12.7907"},
      {"measurement": "radioligand binding, competition curve point (normalized)", "setting": "CB1 (rCB1); rCB1, M = -7.783", "result": "50 and 46.3178"},
      {"measurement": "radioligand binding, competition curve point (normalized)", "setting": "CB1 (rCB1); rCB1, M = -8.496", "result": "103.182 and 83.9147"},
      {"measurement": "radioligand binding, competition curve point (normalized)", "setting": "CB1 (rCB1); rCB1, M = -9.21", "result": 89.2442},
      {"measurement": "radioligand binding, competition curve point (normalized)", "setting": "CB1 (rCB1); rCB1, M = -9.923", "result": "99.0909 and 86.6279"},
      {"measurement": "radioligand binding, competition curve point (normalized)", "setting": "CB1 (rCB1); rCB1, M = -10.636", "result": "105.758 and 87.9845"},
      {"measurement": "fold less potent than CP-55,940", "setting": "CB1 (rCB1); rCB1 binding", "result": 2.5, "unit": "fold"},
      {"measurement": "Ki", "setting": "CB1 (rCB1); read-out: Ki [95% CI], rCB1, [3H]-CP-55,940", "result": 7.5, "unit": "nM"},
      {"measurement": "fold improvement in CB1R affinity", "setting": "CB1 (rCB1); vs parent hit or analog without the change", "result": "approximately 6 fold"},
      {"measurement": "EC50", "setting": "hCB1", "result": 4.79, "unit": "nM"},
      {"measurement": "Emax", "setting": "hCB1; CHO", "result": 65, "unit": "%"},
      {"measurement": "agonism, inhibition of forskolin-stimulated cAMP", "setting": "hCB1; hCB1-expressing cells, in words", "result": "agonists"},
      {"measurement": "normalised cAMP response, concentration-response (Figure2f), replicate values", "setting": "hCB1; M] -5", "result": "23.9901 and 17.3183 and 31.2071"},
      {"measurement": "normalised cAMP response, concentration-response (Figure2f), replicate values", "setting": "hCB1; M] -6", "result": "35.8451 and 34.6268 and 48.1963"},
      {"measurement": "normalised cAMP response, concentration-response (Figure2f), replicate values", "setting": "hCB1; M] -7", "result": "34.8754 and 40.2051 and 42.4315"},
      {"measurement": "normalised cAMP response, concentration-response (Figure2f), replicate values", "setting": "hCB1; M] -8", "result": "49.8775 and 50.0992 and 49.4868"},
      {"measurement": "normalised cAMP response, concentration-response (Figure2f), replicate values", "setting": "hCB1; M] -9", "result": "89.3609 and 84.5102 and 106.905"},
      {"measurement": "normalised cAMP response, concentration-response (Figure2f), replicate values", "setting": "hCB1; M] -10", "result": "90.3788 and 99.666 and 104.111"},
      {"measurement": "normalised cAMP response, concentration-response (Figure2f), replicate values", "setting": "hCB1; M] -11", "result": "85.7953 and 85.5262 and 99.9371"},
      {"measurement": "normalised cAMP response, concentration-response (Figure2f), replicate values", "setting": "hCB1; M] -12", "result": "103.02 and 108.188 and 110.316"}
    ]}
  ]
}
